Measurements taken from patent publication US20240299505A1, “COMPOSITION FOR IMPROVING, PREVENTING OR TREATING INFLAMMATORY BOWEL DISEASE COMPRISING NAMPT-DERIVED PEPTIDE AS ACTIVE INGREDIENT” (Industry-University Cooperation Foundation Hanyang …, priority 2023, published 2024).

Experiments:
[1] = system: DSS-induced acute colitis; test: DSS-induced acute colitis mouse model (Lenti-shNS or Lenti-shITG transduced); assay type: in vivo, C57BL/6 mice; details: Lenti-shNS-transduced mice
Description: FIG. 8 confirms an effect of rCT-NAMPT in mice with DSS-induced acute colitis. Specifically, (A) an experimental plan for an acute colitis model treated with rCT-NAMPT (50 μg/kg) and 3% DSS after introduction of Lenti-shNS or Lenti-shITG virus (left) and the survival rates of mice monitored for 12 days (right). Mortality was measured with n=15 mice per group. Statistical differences between rVehicle treated animals were recorded (log-rank test). […] (B) confirms a change in body weight of the experimental animals during an experiment period in (A) above (n=8). (C) is a colitis score result of the experimental animals in (A) above. […] (H) Results of hematoxylin and eosin (H&E) staining of the colon (left) (n=10): Representative radiohistopathology scores were evaluated using rVehicle, rCT, or rCT-NAMPT in 3% DSS-treated mice as illustrated in techniques (Materials and Methods). Statistical significance was evaluated using a Student's t-test using Bonferroni correction (***p<0.001) in comparison to rVehicle;
(§1) Dextran sodium sulfate (DSS)-induced acute or chronic colitis mouse models were constructed using 6-week-old C57BL/6 female mice (Samtako, Osan, Korea). […] The survival of mice was tracked for 12 days, and mortality was measured for n=15 mice per group. […] The survival of mice was tracked for 9 weeks, and mortality was measured for n=15 mice per group. […]

[2] = system: DSS-induced chronic colitis; test: DSS-induced chronic colitis mouse model; assay type: in vivo, C57BL/6 mice; details: 50 μg/kg i.p.
Description: FIG. 10 confirms an effect of rCT-NAMPT in mice with DSS-induced chronic colitis. Specifically, (A) Scheme of the chronic colitis model treated with rCT-NAMPT (50 μg/kg) and 3% DSS. (B) The survival of mice was tracked for 9 weeks, and mortality was calculated for n=15 mice per group. Statistical differences between rVehicle treated animals were recorded (log-rank test). […] (C) Weight loss of rVehicle, rCT or rCT-NAMPT treatment in mice was confirmed (n=15). (D) Image (upper) and length (lower) of colon in 3% DSS-induced chronic colitis mice with rVehicle, rCT or rCT-NAMPT. (E) H&E staining of the colon (left) (n=8): a representative image. H&E staining was used to evaluate histopathology scores in 3% DSS-induced chronic colitis mice treated with rVehicle, rCT, or rCT-NAMPT. […]
as §1
Body weight, degree of bloody stool, and stool concentration were measured every day during the colitis induction to obtain the clinical score. The clinical score was determined by two trained investigators who were not provided with information about the experiment. […]

colonic tissues = details: mice with acute colitis, intraperitoneal injection, Cy5.5 conjugate
Description: The number of ITGA6+ or ITGB1+ cells was analyzed by FACS.
Mice were intravenously injected with a lentivirus expressing nonspecific shRNA (shNS) or shRNA specific for ITGA6 (sh ITGA6) or ITGB1 (shITGB1) 2 times and then orally administered with DSS (Acute or chronic Colitis) and rCT-NAMPT, and then experiments were performed.
Next, to evaluate the specificity of rCT-NAMPT, ITGA6- or ITGB1-knockdown mice were generated through sh-Lentiviral transduction. The mice were treated with DSS and administered rCT-NAMPT/Cy5.5 via intraperitoneal injection on day 6.

## TWYKIAFQRNRK [rCT]
[1]; 3% DSS, 50 μg/kg i.p. 8 times, 12 days
  survival rate / mortality: Neither rVehicle or rCT significantly affected mortality
[1]; DSS
  colon histology (H&E staining): disrupted by DSS
[2]
  body weights: Body weights fluctuated
Colonic tissues
  tissue targeting (colon versus other organs): specifically targeted colonic tissues in mice with acute colitis, but not in other organs
